Read-outs that look alike come from different tables or passages of the source.
Tests used:
[1] = Comparison test of dispersibility of cholesterol and cholesterol derivatives in water; assay type: physicochemical; details: 20 mg in 50 mL water, 20° C. water bath, FIG. 7
[2] = Comparison test of solubility of derivatives in water
Procedure: 20.0 mg cholesterol derivative of (l) prepared in Example 7 was dispersed in 50 mL water, 5 mL was taken out therefrom and added with 1.5 mL water, the resulting mixture was placed in a 20° C. water bath, and shaken vigorously for 30 s every 5 min.
24.2 mg cholesterol derivative of mEG7-OH prepared in Example 8 was dispersed in 50 mL of water, 5 mL was taken out therefrom and added with 5 mL water, the resulting mixture was shaken vigorously for 30 s every 5 min.
111.0 mg the hexadecanol derivative of (1) prepared in Example 7 was dispersed in 25 μL of water and shaken vigorously for 30 s every 5 min.
112.9 mg the hexadecanol derivative of mEG7-OH prepared in Example 8 was dispersed in 50 μL of water and shaken vigorously for 30 s every 5 min.
101.3 mg the menthol derivative of mEG7-OH prepared in Example 8 was dispersed in 50 μL of water and vigorously shaken for 30 s every 5 min. After 30 min, the solution was turbid; another 50 μL of water was added, the resulting mixture was vigorously shaken for 30 s every 5 min.

| SMILES | disperse state in water [1] | solubility [2] [mg/100 g H2O] | solubility ([2]; listed as Cholesterol) [mg/100 g H2O] | solubility ([2]; listed as Hexadecanol) [mg/100 g H2O] | solubility ([2]; listed as Menthol) [mg/100 g H2O] |
| --- | --- | --- | --- | --- | --- |
| COCCOCCOCCOCCOCCOCCOCCOC(=O)O[C@H]1CC[C@@]2(C)C(=CC[C@H]3[C@@H]4CC[C@H]([C@H](C)CCCC(C)C)[C@@]4(C)CC[C@@H]32)C1 [cholesterol derivative of mEG7-OH] | white emulsion | – | – | – | – |
| CC(C)CCC[C@@H](C)[C@H]1CC[C@H]2[C@@H]3CC=C4C[C@@H](O)CC[C@]4(C)[C@H]3CC[C@]12C [cholesterol] | completely insoluble | < 0.2 | <0.2 | – | – |
| CCCCCCCCCCCCCCCCO [hexadecanol] | – | < 1 | – | <1 | – |
| CC1CCC(C(C)C)C(O)C1 (centres unmarked) [menthol] | – | < 100 | – | – | <100 |
